Structures can show the parent of a compound that is named as a salt.
How the values were obtained:
NDM-1 = NDM-1 (Klebsiella pneumoniae, UniProt C7C422); experiment: metallo-β-lactamase inhibition assay (nitrocefin); format: biochemical; conditions: 1.5 nM NDM-1, 100 μM nitrocefin, 37° C., pH 7.5
Protocol: Compounds of the invention were tested in a metallo-β-lactamase inhibition assay to investigate mechanism of action of the compounds. Results are reported as the concentration of test article required to inhibit enzyme activity by 50% (IC50).
Inhibition of metallo-β-lactamase enzyme function was performed at 37° C. in buffer at pH 7.5 (50 mM HEPES, 150 mM NaCl, 0.1 mM ZnSO4, 20 μg/mL PEG4000), containing 1.5 nM NDM-1, 100 μM nitrocefin, and a range of concentrations of compound. Absorbance at 490 nm was measured using a BMG LABTECH FLUOstar Omega microplate reader every minute for 30 minutes. IC50S were determined from the average increase in OD per minute versus the Log 10 concentration of compound using GraphPad Prism.

[1] = Cytotoxicity Assay (CellTiter-Glo); format: cell-based; conditions: human, Hep G2 cells (ATCC HB-8065); 24 h exposure, cell viability; read-out: HepG2 CC50
Protocol: Cytotoxicity was evaluated in human Hep G2 cells (ATCC HB-8065) seeded at a density of 2×10^5 cells per well and incubated for 24 h at 37° C., 5% CO2. Cells were exposed to a doubling dilution series of test article. After 24 h exposure, the viability of the cells was determined using CellTiter-Glo® (Promega, Wis., USA) according to the manufacturer's instructions. Results are reported as the concentration of test article required to reduce cell viability by 50% (CC50).

Chain of NDM-1 (C7C422 whole entry, looked up, species assumed): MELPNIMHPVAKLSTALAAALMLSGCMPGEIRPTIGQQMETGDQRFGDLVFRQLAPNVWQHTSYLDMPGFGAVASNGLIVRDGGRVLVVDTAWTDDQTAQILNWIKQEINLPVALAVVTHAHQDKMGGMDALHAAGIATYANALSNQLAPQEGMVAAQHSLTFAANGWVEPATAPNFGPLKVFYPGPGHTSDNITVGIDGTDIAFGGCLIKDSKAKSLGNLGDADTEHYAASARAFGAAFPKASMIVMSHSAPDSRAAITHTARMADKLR

SMILES | IC50 (NDM-1) | CC50 at 24 h [1]
CS(=O)(=O)c1ccc(-c2ccn(S(N)(=O)=O)c2C(=O)O)cc1 [Example 5, 3-(4-Methanesulfonylphenyl)-1-sulfamoyl-1H-pyrrole-2-carboxylic acid, sodium salt] | 0.445 µM | > 256 µg/mL
Cn1cc(-c2ccn(S(N)(=O)=O)c2C(=O)O)cn1 [Example 6, 3-(1-Methyl-1H-pyrazol-4-yl)-1-sulfamoyl-1H-pyrrole-2-carboxylic acid, sodium salt] | 2.86 µM | > 256 µg/mL
NS(=O)(=O)n1ccc(-c2cccc3ncccc23)c1C(=O)O [Example 11, 3-(5-Quinolyl)-1-sulfamoyl-pyrrole-2-carboxylic acid, sodium salt] | 4.12 µM | > 256 µg/mL
Nc1ncc(-c2ccn(S(N)(=O)=O)c2C(=O)O)cc1F [Example 21, 3-(6-Amino-5-fluoro-3-pyridyl)-1-sulfamoyl-pyrrole-2-carboxylic acid] | 3.36 µM | > 256 µg/mL
NS(=O)(=O)n1ccc(-c2ccc(NS(=O)(=O)C3CC3)cc2)c1C(=O)O [Example 23, 3-[4-(Cyclopropylsulfonylamino)phenyl]-1-sulfamoyl-pyrrole-2-carboxylic acid] | 0.548 µM | > 256 µg/mL
NS(=O)(=O)n1ccc(-c2ccc(C3CCNCC3)cc2)c1C(=O)O [Example 34, 3-[4-(Piperidin-4-yl)phenyl]-1-sulfamoyl-1H-pyrrole-2-carboxylic acid hydrochloride] | 0.151 µM | > 256 µg/mL
NCCNS(=O)(=O)c1ccc(-c2ccn(S(N)(=O)=O)c2C(=O)O)cc1 [Example 36, 3-{4-[(2-Aminoethyl)sulfamoyl]phenyl}-1-sulfamoyl-1H-pyrrole-2-carboxylic acid] | 1.01 µM | > 256 µg/mL
Cn1c(N)nc2c(-c3ccn(S(N)(=O)=O)c3C(=O)O)cccc21 [Example 46, 3-(2-Amino-1-methyl-benzimidazol-4-yl)-1-sulfamoyl-pyrrole-2-carboxylic acid hydrochloride] | 2.79 µM | > 256 µg/mL

Further lines, with some results ahead:

IC50 (NDM-1) | SMILES | CC50 at 24 h [1]
0.826 µM | Nc1ccc(-c2ccn(S(N)(=O)=O)c2C(=O)O)cn1 [Example 1, 3-(6-Aminopyridin-3-yl)-1-sulfamoyl-1H-pyrrole-2-carboxylic acid] | > 256 µg/mL
0.479 µM | Cc1ccc(-c2ccn(S(N)(=O)=O)c2C(=O)O)cc1 [Example 2, 3-(p-tolyl)-1-sulfamoyl-1H-pyrrole-2-carboxylic acid, sodium salt] | > 128 µg/mL
0.448 µM | NS(=O)(=O)n1ccc(-c2cccnc2)c1C(=O)O [Example 8, 3-(Pyridin-3-yl)-1-sulfamoyl-1H-pyrrole-2-carboxylic acid, sodium salt] | > 256 µg/mL
1.35 µM | NS(=O)(=O)n1ccc(-c2ccncc2)c1C(=O)O [Example 9, 3-(Pyridin-4-yl)-1-sulfamoyl-1H-pyrrole-2-carboxylic acid, sodium salt] | > 256 µg/mL
0.725 µM | NS(=O)(=O)n1ccc(-c2ccc(F)cc2)c1C(=O)O [Example 18, 3-(4-Fluorophenyl)-1-sulfamoyl-pyrrole-2-carboxylic acid, sodium salt] | > 256 µg/mL
1.53 µM | NS(=O)(=O)n1ccc(-c2cccc(F)c2)c1C(=O)O [Example 19, 3-(3-Fluorophenyl)-1-sulfamoyl-pyrrole-2-carboxylic acid] | > 256 µg/mL
2.09 µM | Nc1cncc(-c2ccn(S(N)(=O)=O)c2C(=O)O)c1 [Example 22, 3-(5-Amino-3-pyridyl)-1-sulfamoyl-pyrrole-2-carboxylic acid] | > 256 µg/mL
2.69 µM | NS(=O)(=O)n1ccc(-c2ccc(=O)[nH]c2)c1C(=O)O [Example 52, 3-(6-Oxo-1,6-dihydropyridin-3-yl)-1-sulfamoyl-1H-pyrrole-2-carboxylic acid, Sodium Salt] | > 256 µg/mL
